Data published in patent US10450260B2, “NO- and H2S-releasing compounds” (RESEARCH FOUNDATION OF THE CITY UNIVERSITY OF NEW YORK, priority 2011, dated 2019).

How the values were obtained:
[1] = test system: eleven different cancer cell lines; experiment: MTT cell growth inhibition, all cell lines of the panel; type: cell-based; conditions: Homo sapiens; 24 hr; colon, breast, pancreas, lung, prostate, leukemia cancer cell lines of Table 1
Protocol: HT-29, SW-480 and HCT-15 human colon adenocarcinoma, MIA PaCa-2 and BxPC-3 human pancreatic cancer, LNCAP human prostate cancer, A549 human lung cancer, MCF-7 (estrogen receptor positive), MDA-MB 231 and SK-BR-3 (estrogen receptor negative) human breast cancer, and Jurkats human leukemia cell lines were obtained from American Type Tissue Collection (Manassas, Va.). All cells lines were grown as monolayers except for the Jurkats which were grown in suspension. […] Single cell suspensions were obtained by trypsinization (0.05% trypsin/EDTA), and cells were counted using a hemocytometer. Viability was determined by the trypan blue dye exclusion method.
Cell growth inhibitory effect of NOSH compounds were measured using a colorimetric MTT assay kit (Roche, Indianapolis, Ind.). […] The absorbance of the plates was measured on an ELISA reader at a wavelength of 570 nm. […]
HT-29, SW-480 and HCT-15 human colon adenocarcinoma, MIA PaCa-2 and BxPC-3 human pancreatic cancer, LNCAP human prostate cancer, A549 and H383 human lung cancer, MCF-7, MDA-MB 231 and SK-BR-3 human breast cancer and Jurkat T cell human leukemia cell lines were obtained from American Type Tissue Collection (Manassas, Va.) All cells lines were grown as monolayers except for the Jurkat T cells which were grown as suspension culture. […] Viability was determined by the trypan blue dye exclusion method. […]

[2] = test system: SW480 colon cancer cell xenograft; experiment: SW480 xenograft in athymic nude mice; type: in vivo, mouse
Excerpt: Male athymic nude (NU/NU) mice, age 5 weeks, were purchased from Charles River Laboratories, Inc., (Wilmington, Mass.) and were housed according to institutional and NIH guidelines.
Human colon (SW480), Breast (MCF-7, MDA-MB-231), and pancreas (MIA PaCa2) cancer cells (2×10^6) suspended in Matrigel (BD Biosciences, San Jose, Calif.) 50% v/v were inoculated subcutaneously in the right flanks of each mouse (10 mice per group) using a 1-mL syringe and 22-gauge needles. After 10 days the animals from each implanted cell line were randomly divided into 2 groups (N=5/group) and gavaged daily with either vehicle (1% methylcelloluse) or NOSH-naproxen (100 mg/kg) or NOSH (100 mg/kg), the ADT-OH-butyl nitrate compound that releases H2S and NO, in the case of colon cancer xenografts; or NOSH-aspirin (100 mg/kg body weight) in the breast and pancreatic cancers groups. The tumor size was measured every other day using electronic calipers, the tumor volumes were calculated using the following formula: length×width^2/2. The weights of the mice were also recorded every 3 days. Twenty-seven (27) to thirty (30) days post inoculation, the mice were sacrificed, the tumors collected, weighed, and photographed.

SMILES	IC50 [1] [mM]	mean tumor volume ([2]; 100 mg/kg daily gavage, end of study, control 2098±603) [mm^3]	reduction of tumor mass ([2]; 100 mg/kg daily, day 30, vs control) [%]	average tumor mass ([2]; 100 mg/kg daily, day 30, control 1.42±0.48) [g]	mean reduction of tumor volume ([2]; 100 mg/kg daily, vs control) [%]
CC(=O)Oc1ccccc1C(=O)O [ASA, aspirin, reference compound]	> 5	–	–	–	–
CC(C(=O)Oc1ccc(-c2cc(=S)ss2)cc1)c1ccc2cc(OC(=O)CCCO[N+](=O)[O-])ccc2c1 (centres unmarked) [NOSH-7, 6-(1-oxo-1-(4-(3-thioxo-3H-1,2-dithiol-5-yl)phenoxy)propan-2-yl)naphthalen-2-yl 4-(nitrooxy)butanoate]	–	379±73	55	0.63 ± 0.11	82
